Assay results from US7012077B2, “Substituted cyclohexane derivatives” (Hoffmann-La Roche Inc., priority 2001, dated 2006).

SMILES: CN(C)CC#C[C@H]1CC[C@H](N(C)c2ncc(Br)cn2)CC1 [Example 2, trans-(5-Bromo-pyrimidin-2-yl)-[4-(3-dimethylamino-prop-1-ynyl)-cyclohexyl]-methyl-amine]
- melting point: 83 to 84 °C (dec.)

SMILES: CN(C)C[C@H]1CC[C@H](CCNc2ncc(Br)cn2)CC1 [Example 12, trans-(5-Bromo-pyrimidin-2-yl)-[2-(4-dimethylaminomethyl-cyclohexyl)-ethyl]-amine]
- melting point: 108.3 to 109.5 °C

SMILES: CN(C)CC#C[C@H]1CC[C@H](CN(C)c2ncc(Br)cn2)CC1 [Example 16, trans-(5-Bromo-pyrimidin-2-yl)-[4-(3-dimethylamino-prop-1-ynyl)-cyclohexylmethyl]-methyl-amine]
- melting point: 71 to 72 °C

SMILES: CCCc1cnc(N(C)C[C@H]2CC[C@H](C#CCN(C)C)CC2)nc1 [Example 23.1, trans-[4-(3-Dimethylamino-prop-1-ynyl)-cyclohexylmethyl]-methyl-(5-propyl-pyrimidin-2-yl)-amine]
- melting point: 49 to 50 °C
